The values below come from patent publication US12661355B2, “Compounds and methods for inducing UCP1 expression” (The Regents of the University of California, priority 2020, dated 2026).

Series [1] deals with brown adipocytes. Description: Lipolysis assay in brown adipocytes. It counts as cell-based, mouse. Conditions: immortalized brown adipocytes, 10 μM overnight. On the procedure:
Lipolysis was assessed in cultured cells using medium collected over 3 h with the Adipolysis assay kit (AB100, Millipore), according to the manufacturer's protocol.

Series [2] concerns immortalized brown adipocytes. Description: Global gene expression analysis (microarray, DAVID functional annotation) in immortalized brown adipocytes. It counts as cell-based, mouse. On the procedure: Mouse RNA levels were measured by qPCR according to known methods. Data were normalized to B2m and Tbp reference genes. Human RNA was extracted using an RNA Mini Plus kit (Zymo) and gene expression determined by Taqman assay. The 1-step qPCR was run on a QuantStudio 12K Flex Real Time PCR System (ThermoFisher) using the following protocol: 50° C. for 5 minutes, 95° C. for 20 seconds, 40 cycles of 95° C. for 15 seconds and 60° C. for 60 seconds. Data were normalized to PPIA and PSMB2 reference genes. For global gene expression analysis, RNA isolated from brown adipocytes treated with compounds as indicated (four biological replicates) was hybridized to Illumina mouse Ref 8 V2.0 bead chips at the University of California, Los Angeles Neuroscience Genomics Core as previously described. Data were processed with GenomeStudio V2011.1 using the quantile normalization, background subtraction, and a present call of P<0.05.
To assess the effects of Z160 on global transcription in mouse brown adipocytes, microarray analysis of RNA isolated from immortalized brown adipocytes treated with either vehicle or Z160 was performed. […] The results of the microarray were corroborated using qPCR for representative genes from each electron transport chain complex (FIG. 5B).

Series [3] has as its system PKA subunits. Description: Western blot of mitochondria-associated proteins, PKA subunits. It counts as cell-based, mouse. Conditions: brown adipocytes, 10 μM, after 6-8 h. The protocol: Cells and tissues were lysed in 10 mM Tris pH 7.5, 10 mM NaCl, 1 mM EDTA and 0.5% Triton X-100, supplemented with complete mini EDTA-free protease (Roche Diagnostics) and phosphatase (Cocktail 2 and 3, Sigma) inhibitors, followed by 10 second sonication. For analysis of mitochondrial proteins, mitochondria were isolated from cells by dual centrifugation, as described. Protein lysates were separated by SDS-PAGE and transferred to a nitrocellulose membrane. Transfer was confirmed by Ponceau staining (P7170, Sigma). After blocking in 5% milk, 0.1% Tween-20 in Tris-buffered saline (TBS), primary antibody was incubated overnight at 4° C. in 5% bovine serum albumin and 0.1% Tween-20 in TBS. Primary antibodies against ACTB (GTX109639, GeneTex), AKAP1 (5203, Cell Signaling), AKAP6 (07-087, Millipore), Cytochrome c (136F3, Cell Signaling), electron transport chain protein complexes (Total OXPHOS rodent WB antibody cocktail ab110413, Abcam), GAPDH (GTX100118, Genetex), active p38 MAPK (V1211, Promega), total p38 MAPK (8690, Cell Signaling), PGC1α (AB3242, Millipore), phospho-(Ser/Thr) PKA substrate (9621, Cell Signaling), PKA C-α (4782, Cell Signaling), PKA RII-β (ab75993, Abcam), and UCP1 (662045, Calbiochem) were used at 1:2000. […] Quantification using representative bands from the Ponceau staining was performed with ImageJ. […]
(In general: In western blotting, separated proteins are transferred to a membrane and probed.)

In series [4] the test system is C57BL/6J male mice. As to the kind of experiment: Thermogenesis in vivo after subcutaneous injection. Conditions: single subcutaneous injection 1.5 mg/kg. On the procedure: All mouse studies were conducted in accordance with and approved by the Institutional Animal Research Committee of the University of California, Los Angeles. C57BL/6J male mice were obtained from the Jackson Laboratory. For the drug injection, Z160 (diluted in 100 μl DMSO) was injected subcutaneously, near BAT, at 1.5 mg/kg body weight and compared with vehicle alone. […] Body temperature was obtained with a rectal probe (BAT-12, Physitemp). Aspartate aminotransferase (AST) activity was determined from plasma according to the manufacturer's protocol (MAK055, Sigma).

The mark [5] stands for this setting: genes >1.5-fold down-regulated, DAVID.
Setting [6] is: genes >1.5-fold up-regulated, DAVID.

Turning to `COc1ccc(NC(=O)CSc2nc3ccccc3c(=O)[nH]2)c(OC)c1` [Z160], the lipolysis entry in series [1] is given as “induced lipolysis”. In addition, in series [2] (setting [5]), the “Genes, GO cellular component Down: Basement membrane” value amounted to 17; the “Genes, GO cellular component Down: Cell surface” value turned out to be 45; the “Genes, GO cellular component Down: Cytoplasm” value is given as 178; the “Genes, GO cellular component Down: Extracellular exosome” value was found to be 119. In addition, in series [2] (setting [5]), the “Genes, GO cellular component Down: Extracellular region” value is 86; the “Genes, GO cellular component Down: Extracellular space” value stood at 72; the “Genes, GO cellular component Down: Focal adhesion” value was determined as 25; the “Genes, GO cellular component Down: Proteinaceous extracellular matrix” value stood at 35. In series [2] (setting [6]), the “Genes, GO cellular component Up: Mitochondrial inner membrane” value is reported as 27 and the “Genes, GO cellular component Up: Mitochondrion” value is 88. Moreover, in series [2] (microarray, vs vehicle), the “Ucp1 increase (microarray)” value is given as 2.5 fold, the “probes down-regulated by at least 1.5-fold” value amounted to 504 probes and the “probes up-regulated by at least 1.5-fold” value came out at 581 probes. Moreover, in series [3], the “mitochondrial association of PKA subunits” value is listed as “increased mitochondrial association”. Besides, in series [4], the “Ucp1 mRNA and protein levels in BAT” value is reported as “elevated”; the “expression of genes implicated in mitochondrial function and lipolysis in BAT” value was “enhanced expression”; the plasma glucose levels came to 157.6 ± 26.2 mg/dL. This molecule also yielded a body temperature in series [4] (measured 24 h later) of 38.3 °C. For the same molecule, the “increase in body temperature” value in series [4] (measured 24 h later, vs vehicle) is 0.8 °C. Besides, the “liver toxicity assessed by circulating aspartate aminotransferase (AST) levels” value in series [4] (plasma) is “No liver toxicity”.
